Common to all, as to assay: NCI-60 cell line screen, 48 h
Test [1] has as its system KM12 colon.
The subject of test [2] is NCI-H522 lung.
Test [3] concerns HOP-92 NSCLC.
Test [4] has as its system NCI/ADR-RES ovarian.
Test [5] deals with SW-620 colon.
For test [6], the system named is 786-0 renal.
Test [7] deals with NCI-H460 lung.
In test [8] the test system is ACHN renal.
Test [9] concerns UACC-257 melanoma.
In test [10] the test system is A498 renal.

“And” between values parts separate entries of the source, which are not always exact repeats. Equal values may be shown once.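 Test compounds were applied to cells in 96-well plates for 48 hours at 5 doses. GI50 marks 50% less growth. TGI denotes the concentration required for complete inhibition of growth.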 A value given as a limit tells only on which side of the number the result lay.

As for `N#CC1=C(N)NC(N2CCOCC2)=NC12Nc1ccccc1O2` (centres undefined), the GI50 is 49.8 µM in test [1]; 23 µM in [2]; greater than 100 µM in test [3]; 34.2 µM in test [4]; 43.2 µM in test [5]; 21.5 µM in test [6]. The results for the GI50 in test [7], in test [8] and in test [9] were 46.1 µM, 34 µM and 49.7 µM, respectively. For the same compound, the TGI in [1] is greater than 100 µM; in test [2], 75 µM; in test [3], greater than 100 µM; in test [4], greater than 100 µM; in [5], greater than 100 µM; in test [6], 60.1 µM. The TGI in test [7], in [8] and in test [9] was greater than 100 µM each time.

In the case of `COc1cc(/C=C/C(=O)CC(=O)/C=C/c2cc(OC)c(O)c(OC)c2)cc(OC)c1O`, the GI50 in test [1] is 13.5 µM; in [2], 3.75 µM; in test [4] it was greater than 100 µM; in [10], 15.6 µM; in test [6], 38.6 µM; in [8], 42.2 µM. In addition, the GI50 in [9] is 23.5 µM. For the same compound, the TGI in [1] was 15.4 µM and 31.1 µM; in [2], 15 µM and 14 µM; in test [4] it was greater than 100 µM; in [5] it was greater than 100 µM; in test [10], 12.2 µM and 37.5 µM; in [6], 25 µM and > 100 µM. Besides, the TGI in [7] is greater than 100 µM; in test [8] it was 25 µM and > 100 µM; in test [9], 25 µM and > 100 µM.

As for `CC(C)[P+](c1ccccc1)(c1ccccc1)c1ccccc1`, the GI50 in test [1] is 2.57 µM; in test [2] it was 2.6 µM; in test [4], greater than 100 µM; in test [5] it was 6.83 µM; in test [10], 9.22 µM; in test [6], 32.5 µM. The GI50 in [7] was 6.92 µM; in test [8] it was 86.8 µM; in test [9] it was 1.07 µM. Further, the TGI is greater than 100 µM in test [1]; 26.5 µM in test [2]; greater than 100 µM in test [4]; greater than 100 µM in [5]; 74.9 µM in test [10]; greater than 100 µM in test [6]. Moreover, the TGI in test [7] is greater than 100 µM; in test [8] it was greater than 100 µM; in test [9], 7.06 µM.

On to `N#C/C(=C/N1CCN(C(=O)c2ccco2)C1=S)C(=O)Nc1ccc(Cl)cc1`, for which the GI50 in test [1] was 16.3 µM; in test [2], 16.7 µM; in [3], 21.5 µM; in [4], 28.1 µM; in test [5], 17.3 µM; in test [6], 17.4 µM. Also, the GI50 in test [7] is 19.9 µM; in test [8] it was 15.3 µM; in test [9], 16.5 µM. For the same compound, the TGI in [1] was greater than 50 µM; in test [2], 30.2 µM; in test [3], greater than 50 µM; in test [4], greater than 50 µM; in test [5] it was greater than 50 µM; in test [6], greater than 50 µM. Further, the TGI in [7] is greater than 50 µM; in test [8], 42.2 µM; in [9], 48.4 µM.

Regarding `C1CSC[C@H]2COC[C@@H](CSCCS1)S2`, the TGI in test [1], in [2], in test [3], in [4], in test [5] and in test [6] was greater than 100 µM in each case. Also, the TGI in test [7] and in [9] was greater than 100 µM in each case.

On to `Cc1cc(=O)[nH]c(N/N=C/c2ccccc2O)n1`, for which the GI50 is 18.4 µM in test [1]; 7.67 µM in test [2]; 3.52 µM in test [4]; 4.6 µM in [5]; 20.5 µM in test [10]; 12.7 µM in [6]. The GI50 is 4.72 µM in test [7], 7.39 µM in test [8] and 3.67 µM in test [9]. Further, the TGI in [1] was greater than 100 µM; in test [2], greater than 100 µM; in test [4], greater than 100 µM; in test [5], greater than 100 µM; in [10], 93.2 µM; in test [6], greater than 100 µM. Moreover, the TGI is greater than 100 µM in test [7], greater than 100 µM in [8] and 34.7 µM in test [9].

As for `COC1=C(OC)C(=O)C(C/C=C(\C)CC/C=C(\C)CC/C=C(\C)CC/C=C(\C)CC/C=C(\C)CC/C=C(\C)CC/C=C(\C)CC/C=C(\C)CC/C=C(\C)CCC=C(C)C)=C(C)C1=O`, the GI50 in [1], in test [2], in test [3], in test [4], in [5] and in [6] was greater than 100 µM each time. Moreover, the GI50 in test [7], in [8] and in test [9] was greater than 100 µM throughout. Besides, the TGI in [1], in test [2], in test [3], in [4], in [5] and in test [6] was greater than 100 µM in each case. Besides, the TGI in [7], in test [8] and in test [9] was greater than 100 µM each time.

On to `CC12OC(C(=O)C13CC3)C1C(=O)c3c(O)ccc(O)c3C(=O)C12` (centres undefined), for which the GI50 was 23.5 µM in [1]; 16.1 µM in test [2]; 11.9 µM in test [3]; 20.1 µM in test [4]; 2.19 µM in [6]; 31.5 µM in [7]. The GI50 in test [8] was 3.54 µM; in test [9], 13.9 µM. Also, the TGI in test [1] was 90.1 µM; in test [2], 32 µM; in test [3], 41 µM; in [4] it was 66.8 µM; in test [6], 6.56 µM; in test [7], greater than 100 µM. The TGI in test [8] came out at 15.2 µM; in [9], 29.1 µM.

Consider `C=CC1C(CC2OC(CO)C(O)C(O)C2O)OC=C2C(=O)OCCC21O` (centres undefined), for which the GI50 in [1] was 3.05 µM; in test [2], 4.72 µM; in test [3], 1.68 µM; in test [4], 24 µM; in test [5], 5.38 µM; in test [6], 2.67 µM. Moreover, the GI50 in test [7] is 28.4 µM; in [8], 29.8 µM; in test [9], 20.4 µM. Further, the TGI was 30.1 µM in test [1]; 34.5 µM in [2]; 9.35 µM in [3]; greater than 100 µM in [4]; 29.9 µM in test [5]; 17.5 µM in test [6]. The results for the TGI in [7], in test [8] and in test [9] were greater than 100 µM, greater than 100 µM and 50.9 µM, respectively.

Consider `CC1CCCC(C#N)(NOC2=NCCN2)C1` (centres undefined), for which the GI50 in test [1] was 48.4 µM; in test [2], 29 µM; in test [3], 36.5 µM; in [4], greater than 100 µM; in [5] it was 36.3 µM; in test [6] it was greater than 100 µM. The GI50 in test [7] is 43.3 µM; in test [8] it was 18.9 µM; in [9], 97.5 µM. In addition, the TGI in test [1] was greater than 100 µM; in [2], greater than 100 µM; in [3], 75.1 µM; in test [4], greater than 100 µM; in test [5] it was greater than 100 µM; in test [6], greater than 100 µM. The TGI was greater than 100 µM in test [7], 46 µM in [8] and greater than 100 µM in test [9].

With `CC(C)=Cc1cc(C)c2ccc(C)c3c2c1C(C)=C(O)C3=O`, the GI50 in [1] is 29.8 µM; in test [2], 19.8 µM; in test [4] it was 15.7 µM; in test [5], 30 µM; in test [6], 35.9 µM; in test [7], 51.2 µM. Also, the GI50 in test [8] is greater than 100 µM; in test [9], 39.5 µM. Also, the TGI in test [1] is greater than 100 µM; in test [2], 46.4 µM; in test [4], 51.3 µM; in [5], greater than 100 µM; in test [6], greater than 100 µM; in test [7], greater than 100 µM. Further, the TGI in test [8] and in [9] was greater than 100 µM each time.

On to `COc1cc(F)c(F)cc1C(=O)c1cnc(NC2CCN(S(C)(=O)=O)CC2)nc1N`, for which the GI50 was 3.12 µM in [1]; 4.67 µM in [2]; 6.48 µM in test [4]; 1.27 µM in test [5]; 4.62 µM in test [10]; 5.93 µM in test [6]. Moreover, the GI50 in test [7] is 1.16 µM; in [8] it was 3.19 µM; in test [9] it was 3.56 µM. The TGI in test [1] was greater than 22.4 µM; in [2], greater than 25 µM; in [4] it was greater than 25 µM; in test [5], 24.8 µM; in test [10], 11.9 µM; in test [6], greater than 25 µM. Moreover, the TGI in test [7] is 24.3 µM; in [8], greater than 23.6 µM; in test [9], greater than 22.7 µM.

Take `CC(C)C1(NC(=O)C2CC3c4cccc5[nH]cc(c45)CC3N(C)C2)OC2(O)C3CCCN3C(=O)C(Cc3ccccc3)N2C1=O` (centres undefined): the TGI in [1] is 82.2 µM; in test [2] it was greater than 100 µM; in test [3], greater than 100 µM; in test [4] it was greater than 100 µM; in [5], greater than 100 µM; in test [6], greater than 100 µM. Also, the TGI in test [7], in test [8] and in test [9] was greater than 100 µM in each case.

Source of the values: PubChem BioAssay (NCI).
